The source of these data is patent US5399565A, “Pyrazolidinone CCK and gastrin antagonists and pharmaceutical formulations therof” (priority 1993, dated 1995).

The structures appear in SMILES notation.

The target in test [1] is T1, peripheral type CCK receptors in rat pancreas (Rattus norvegicus, UniProt P30551).
T1 construct: Pancreas was obtained from male Sprague-Dawley rats; from tissue; host or cells: pancreas membranes of male Sprague-Dawley rats
T1 sequence (P30551 1-444): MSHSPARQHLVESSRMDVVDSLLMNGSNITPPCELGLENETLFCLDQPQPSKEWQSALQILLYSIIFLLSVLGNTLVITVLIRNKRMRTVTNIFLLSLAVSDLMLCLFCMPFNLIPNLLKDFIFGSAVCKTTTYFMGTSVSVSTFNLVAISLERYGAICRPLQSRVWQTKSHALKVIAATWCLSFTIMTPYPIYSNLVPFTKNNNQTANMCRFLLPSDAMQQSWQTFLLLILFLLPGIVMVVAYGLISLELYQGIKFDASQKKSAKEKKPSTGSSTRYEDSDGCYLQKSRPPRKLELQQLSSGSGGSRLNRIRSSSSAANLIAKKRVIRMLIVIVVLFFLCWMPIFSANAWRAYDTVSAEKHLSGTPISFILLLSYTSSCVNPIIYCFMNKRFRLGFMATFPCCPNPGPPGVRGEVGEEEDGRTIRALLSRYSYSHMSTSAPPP
Description: Binding to peripheral type CCK receptors in rat pancreas (3H-L-364,718). Conditions: at 10 μM; read-out: Pancreas Percent Inhibition. How it is done:
Binding to peripheral type CCK receptors in rat pancreas was done according to the method of Chang et al. (Mol. Pharmacol. 30: 212-217, 1986) using ^3 H-L364, 718. Pancreas was obtained from male Sprague-Dawley rats, 150-200 g, after decapitation, and dissected free from adipose and connective tissue. The tissue was homogenized in 30 volumes of 50 mM Tris buffer, pH 7.4 and centrifuged at 40,000 g for 10 min. The tissue pellet was washed by resuspension and centrifugation as described above. The final pellet was suspended in 500 volumes of assay buffer (50 mM Tris buffer, pH 7.4, 5 mM MgCl2, 0.14 mg/ml bacitracin, and 5 mM dithiothreitol) to give a protein concentration of 30-60 μg/200 μl . Reagent volumes for the assay were the same as those used for CCK binding to brain membranes. Tritium labeled L-364,718 (Dupont NEN, NET-971) was used as the ligand at a concentration of 0.4-0.6 nM. The samples were incubated 1 hour at room temperature and then filtered as described for the CCK-brain receptor. Scintillation cocktail was added to the filters which were counted for radioactivity using a Micromedic Taurus automatic liquid scintillation counter.
Compound samples were prepared and IC-50 values were determined as described for the CCK-brain experiments. Non-specific binding was that amount left bound to the filters after adding 100 nM L-364,718.

Test [2] concerns the target T2, brain CCK receptor (Mus musculus, UniProt P56481).
T2 construct: from tissue; host or cells: forebrain membranes of male CF-1 mice
T2 sequence (P56481 1-453): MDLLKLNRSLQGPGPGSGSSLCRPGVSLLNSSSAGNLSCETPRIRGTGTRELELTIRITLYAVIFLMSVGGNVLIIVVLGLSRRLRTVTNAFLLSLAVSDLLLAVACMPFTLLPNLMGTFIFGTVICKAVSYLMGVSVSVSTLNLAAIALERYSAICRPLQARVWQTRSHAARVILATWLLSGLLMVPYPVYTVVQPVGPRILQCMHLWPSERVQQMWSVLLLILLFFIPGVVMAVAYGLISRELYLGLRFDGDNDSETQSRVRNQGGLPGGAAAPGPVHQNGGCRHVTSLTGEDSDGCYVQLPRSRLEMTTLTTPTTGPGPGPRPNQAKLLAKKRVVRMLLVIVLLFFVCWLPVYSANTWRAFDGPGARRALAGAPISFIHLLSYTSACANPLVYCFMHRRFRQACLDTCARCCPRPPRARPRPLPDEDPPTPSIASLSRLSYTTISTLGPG
Description: CCK receptor binding, mouse brain membranes (125I-CCK-8 sulfate). The conditions noted are these: for IC50: mouse brain membranes, read-out: Brain IC50; for inhibition at 1 µM / inhibition at 10 µM: read-out: Brain Percent Inhibition. The procedure: Brain CCK receptor binding was performed using mouse brain membranes according to the method of Chang and Lotti (Proc. Natl. Acad. Sci. 83: 4923-4926, 1986). Male CF-1 mice, 23-25 g were sacrificed by cervical dislocation, the forebrain removed and placed in ice cold 50 mM Tris buffer, pH 7.4. The tissue was homogenized in 100 volumes of the Tris buffer with a Brinkman Polytron or Tekmar Tissumizer and then centrifuged at 40,000 g for 10 min. Pellets were resuspended in Tris buffer, centrifuged as above and then resuspended in 100 volumes of assay buffer, pH 6.5 (20 mM N-2-hydroxyethyl-piperazine-N'-2-ethane sulfonic acid (HEPES), 1 mM ethylene glycol his (2-aminoethyl ether-N,N,N',N'-tetraacetic acid) (EGTA), 5 mM MgCl2, 130 mM NaCl, and 0.25 mg/ml bacitracin). The binding assay consisted of 50 μL of compound (or buffer for total binding), 50 μL of ^125 I-CCK-8 sulfate (20 pM) (Amersham IM- 159), 200 μL of assay buffer and 200 μL of homogenate (80-120 μg protein). The samples were incubated at room temperature (25°) for 2 hours, and they were then filtered through GF/B glass fiber filters (soaked in wash buffer for 2 hours before use) using a 48 well Brandel cell harvester designed for receptor binding. The filters were washed twice with 3 ml of 50 mM Tris buffer, pH 7.4, containing 0.01% BSA and then counted for radioactivity in plastic tubes with a Micromedic 10/600 automatic gamma counter.
Compounds were dissolved in dimethyl sulfoxide (DMSO) at a concentration of 10 mM and then further diluted with assay buffer. The concentration of DMSO in the incubation was 0.1% or less and had no effect on the assay at that level. IC-50 values of displacement curves were determined using 7 concentrations of compound and were calculated using the ALLFIT computer program of DeLean, Munson and Rodbard (Am. J. Physiol. 235: E97-E102, 1978). Non-specific binding was determined as the displacement of the radioligand by 100 nM CCK-8 sulfate.

By inhibition is commonly meant the drop in the measured response relative to a control, in per cent. The term IC50 denotes the concentration needed to halve the response being measured. As for `CC(NC(=O)N1NC(=O)[C@@H](c2ccccc2)[C@@H]1c1ccccc1)c1ccc(Br)cc1` (relative stereo) [Example 103], the inhibition at 10 µM in test [1] is 78%. The IC50 in test [2] amounted to 870 nM.

As for `O=C1NN(C(=O)Nc2cc(Cl)cc(Cl)c2)[C@H](c2ccccc2)[C@H]1c1ccccc1` (relative stereo) [Example 59], the inhibition at 10 µM in test [1] was found to be 75%. Also, the inhibition at 1 µM in test [2] turned out to be 44%.

Consider `C[C@@H](NC(=O)N1NC(=O)C(c2ccccc2)C1c1ccccc1)c1ccccc1` (some centres unmarked) [Example 102], for which the inhibition at 10 µM in test [1] was determined as 11%. In addition, the IC50 in test [2] is 4700 nM.

Regarding `O=C1NN(C(=O)NC2CCCCC2)[C@@H](c2ccccc2)[C@@H]1c1ccccc1` (relative stereo) [Example 95], the inhibition at 10 µM stood at 18% in test [1] and 55% in test [2].

Take `O=C1NN(C(=O)Nc2cccnc2)[C@@H](c2ccccc2)[C@@H]1c1ccccc1` (relative stereo) [Example 88]: the inhibition at 10 µM is 37% in test [1] and 40% in test [2].

On to `O=C1NN(C(=O)Nc2cccc(C(F)(F)F)c2)[C@@H](c2ccccc2)[C@@H]1c1ccccc1` (relative stereo) [Example 39], for which the inhibition at 10 µM in test [1] was determined as 52%. For the same compound, the IC50 in test [2] was 330 nM.

In the case of `O=C(Nc1ccc(Cl)c(C(F)(F)F)c1)N1N[C@@H](c2ccccc2)[C@H](c2ccccc2)C1=O` (relative stereo) [Example 8, 2-[(4-Chloro-3-trifluoromethylphenyl)amino-carbonyl]-4,5-diphenyl-3-pyrazolidinone], the inhibition at 10 µM in test [1] worked out at 2%; in test [2], 34%.

Consider `CC(=O)c1ccc(NC(=O)N2NC(=O)[C@@H](c3ccccc3)[C@@H]2c2ccccc2)cc1` (relative stereo) [Example 23], for which the inhibition at 10 µM in test [1] was 23%. In test [2], the IC50 was determined as 490 nM.

In the case of `COc1ccc(NC(=O)N2NC(=O)[C@@H](c3ccccc3)[C@@H]2c2ccccc2)cc1` (relative stereo) [Example 33], the inhibition at 10 µM in test [1] came out at 20%. Moreover, the IC50 in test [2] is 340 nM.

Turning to `O=C1NN(C(=O)Cc2ccc(Cl)c(Cl)c2)[C@@H](c2ccccc2)[C@@H]1c1ccccc1` (relative stereo) [Example 78], the inhibition at 10 µM in test [1] was 49%. Besides, the IC50 in test [2] stood at 1800 nM.

`O=C1NN(C(=S)Nc2cccc(C(F)(F)F)c2)[C@H](c2ccccc2)[C@H]1c1ccccc1` (relative stereo) [Example 61]: the figures for the inhibition at 10 µM in test [1] and in test [2] were 78% and 56%, respectively.

`CCOc1ccc(NC(=O)N2NC(=O)[C@@H](c3ccccc3)[C@@H]2c2ccccc2)cc1` (relative stereo) [Example 34]: in test [1], the inhibition at 10 µM was 12%. For the same compound, the IC50 in test [2] worked out at 1500 nM.

As for `O=C(Nc1ccc(C(F)(F)F)cc1)N1N[C@@H](c2ccccc2)[C@H](c2ccccc2)C1=O` (relative stereo) [Example 83], the inhibition at 10 µM in test [1] was found to be 12%. Further, the inhibition at 1 µM in test [2] worked out at 37%.

For `O=C1NN(C(=O)NCCc2ccc(Cl)cc2)[C@@H](c2ccccc2)[C@@H]1c1ccccc1` (relative stereo) [Example 107], the inhibition at 10 µM worked out at 61% in test [1] and 86% in test [2].

Consider `O=C(O)COC1=NN(C(=O)Nc2ccc(Br)cc2)[C@@H](c2ccccc2)[C@@H]1c1ccccc1` (relative stereo) [Example 12 (O--), 1-[(4-bromophenyl)aminocarbonyl]-3-carboxymethoxy-4,5-diphenyl-2-pyrazoline], for which the inhibition at 10 µM in test [1] amounted to 64%. In test [2], the IC50 was determined as 340 nM.

As to `O=C1NN(C(=O)NCCCc2ccccc2)[C@@H](c2ccccc2)[C@@H]1c1ccccc1` (relative stereo) [Example 108], the inhibition at 10 µM in test [1] worked out at 87%. For the same compound, the half-maximal inhibitory concentration (IC50) in test [2] came out at 1300 nM.

In the case of `O=C1NN(C(=O)NCc2ccc(Cl)cc2)[C@@H](c2ccccc2)[C@@H]1c1ccccc1` (relative stereo) [Example 100], the inhibition at 10 µM in test [1] worked out at 78%. The IC50 in test [2] stood at 2200 nM.

Take `Cc1ccc(NC(=O)N2NC(=O)[C@@H](c3ccccc3)[C@@H]2c2ccccc2)cc1` (relative stereo) [Example 25]: in test [1], the inhibition at 10 µM is 14%. Further, the IC50 in test [2] came out at 210 nM.

On to `O=C1NN(C(=O)Nc2ccc3c(c2)OCO3)[C@H](c2ccccc2)[C@H]1c1ccccc1` (relative stereo) [Example 52], for which the inhibition at 10 µM in test [1] was determined as 21%. In addition, the inhibition at 1 µM in test [2] stood at 60%.

`O=C1NN(C(=O)Oc2ccccc2)[C@@H](c2ccccc2)[C@@H]1c1ccccc1` (relative stereo) [Example 79]: the inhibition at 10 µM in test [1] was 9%; in test [2], 43%.

With `O=C1NN(C(=S)Nc2ccccc2)[C@H](c2ccccc2)[C@H]1c1ccccc1` (relative stereo) [Example 60], the inhibition at 10 µM in test [1] turned out to be 37%; in test [2], 34%.

As to `COc1ccc(C2C(=O)NN(C(=O)Nc3ccc(Br)cc3)C2c2ccccc2)cc1` (centres unmarked) [Example 128], the inhibition at 10 µM in test [1] was 39%. For the same compound, in test [2], the IC50 was 490 nM.

As for `O=C1NN(C(=S)Nc2ccc(C(F)(F)F)cc2)[C@H](c2ccccc2)[C@H]1c1ccccc1` (relative stereo) [Example 62], in test [1], the inhibition at 10 µM turned out to be 37%. In addition, the IC50 in test [2] worked out at 2200 nM.

As for `O=C1NN(c2nc3ccccc3o2)[C@@H](c2ccccc2)[C@@H]1c1ccccc1` (relative stereo) [Example 87], the inhibition at 10 µM in test [1] was 23%; in test [2], 47%.

Turning to `CCCc1ccc(NC(=O)N2NC(=O)[C@@H](c3ccccc3)[C@@H]2c2ccccc2)cc1` (relative stereo) [Example 27], the inhibition at 10 µM in test [1] amounted to 60%. Besides, the half-inhibitory concentration (IC50) in test [2] came to 230 nM.

With `CCCCC1C(=O)NN(C(=O)Nc2ccc(Br)cc2)C1c1ccccc1` (centres unmarked) [Example 69], the inhibition at 10 µM in test [1] came out at 12%. In test [2], the IC50 turned out to be 500 nM.

For `O=C1NN(C(=O)Nc2ccc(-c3ccccc3)cc2)[C@@H](c2ccccc2)[C@@H]1c1ccccc1` (relative stereo) [Example 32], in test [1], the inhibition at 10 µM turned out to be 69%. For the same compound, the inhibition at 1 µM in test [2] came to 42%.

Turning to `Cc1cccc(NC(=O)N2NC(=O)[C@H](c3ccccc3)[C@H]2c2ccccc2)c1` (relative stereo) [Example 41], the inhibition at 10 µM was found to be 21% in test [1] and 57% in test [2].
